Results: patent US20030134303A1, “Adenine nucleotide-binding protein-directed probes, and methods of their synthesis and use” (ActivX Biosciences, Inc,, priority 2001, published 2003)

Legend:
Assay type in all cases: binding
[1] = molecular target: T1, epidermal growth factor receptor (EGFR) (Homo sapiens, UniProt P00533); test: EGF receptor tyrosine kinase labeling in A431 plasma membranes, MS identification of labeled peptide; details: probe 20 μM, 3 hours, solubilized A431 plasma membranes, anti-TAMRA capture, trypsin
T1 construct: Plasma membranes containing the epidermal growth factor receptor (EGFR) were prepared from the A431 human epidermoid cancer cell line; endogenous in cells; host or cells: A431 human epidermoid cancer cells (plasma membrane preparation, Triton X-100 solubilized)
Method: Plasma membranes containing the epidermal growth factor receptor (EGFR) were prepared from the A431 human epidermoid cancer cell line. Approximately 1×10^8 A431 cells were resuspended in 10 mls 20 mM HEPES, pH 7.5, 0.14M NaCl, 5 mM KCl, 0.1 mM EDTA, 0.1% glucose, and 0.035% sodium bicarbonate. The cells were lysed by Dounce homogenization, and the lysate was diluted into 80 mls of 20 mM sodium borate, pH 10.2, 0.1 mM EDTA. This mixture was placed on a rocker at 4° C. for 10 minutes, and the membranes from the mixture were isolated by centrifugation at 16,000 rpm for 30 minutes in a Beckman JA17 rotor. The plasma membranes were further purified by centrifugation over a 40%/30% sucrose cushion at 30000 rpm for 60 minutes in a Beckman MLS 50 swinging bucket rotor. The plasma membranes were collected at the aqueous—sucrose interface, and solubilized in buffer containing 20 mM HEPES, pH 7.5, 50 mM NaCl, 20 mM MgCl2, 0.05 mg/ml BSA, and 0.1% Triton-X-100.
Solubilized A431 plasma membranes (˜0.5 mg total protein) were incubated with (5)(20 μM) for 3 hours. […]
The proteins in this band were trypsinized, and the tryptic peptides were extracted. […] After elution from the beads the captured fragment was analyzed by mass spectroscopy (MS) to identify the peptide sequence: […]

[2] = molecular target: T2, GST-fusion protein of the insulin receptor kinase domain (GST-InsRK) (Homo sapiens, UniProt P06213)
T2 construct: GST-fusion protein of the insulin receptor kinase domain (GST-InsRK)
T2 sequence (P06213 1023-1298 limits assumed): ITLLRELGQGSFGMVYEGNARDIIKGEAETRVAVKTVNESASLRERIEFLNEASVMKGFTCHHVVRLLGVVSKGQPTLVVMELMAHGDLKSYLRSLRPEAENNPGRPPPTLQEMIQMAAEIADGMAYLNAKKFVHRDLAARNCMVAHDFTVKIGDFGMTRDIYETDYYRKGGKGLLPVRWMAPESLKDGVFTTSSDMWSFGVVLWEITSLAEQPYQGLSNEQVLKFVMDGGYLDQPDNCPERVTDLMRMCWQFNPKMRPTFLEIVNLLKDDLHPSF

[3] = molecular target: EGF receptor tyrosine kinase (Homo sapiens, UniProt P00533); test: Effect of inhibitors on EGF receptor tyrosine kinase labeling by ANBP (5) in A431 plasma membranes; details: inhibitor 50 μM, 5 minutes pretreatment, then AX0231 20 μM for 60 minutes; compared with 90% by the EGF inhibitor at 5 μM
Method: After 60 minutes, the reaction was quenched by the addition of gel sample buffer. The samples were electrophoresed on a 10% SDS-PAGE gel. The gel was then scanned on a FMBIO2 gel scanner, and the intensity of labeling of the EGFR was quantitated by ImageAnalysis.

Row | Compound | site of labeling in EGFR (probe-labeled tryptic peptide, K*) [1] | labeling of GST-InsRK by probe [2] | inhibition of probe labeling of EGFR [3]
1 | 5′-FSB-amido-2′(3′)-(2-TAMRA-amidoethylcarbamoyl)adenosine [Compound 5] | located within the active site of the protein | labeled | –
2 | COC(=O)c1ccc(NCc2cc(O)ccc2O)cc1 [AG957] | – | – | significantly less inhibition
